In patent US20030064960A1, “Medicine for inducing osteogenesis” (priority 1999, published 2003):

Columns and labels:
[1] = test system: RC-I,II cell (cultured cell derived from rat calvaria); test: Osteogenesis inducing activity on cultured cell derived from rat calvaria (northern blotting of ALP, COL1 and OC genes); assay type: cell-based
Method: (1) Preparation of Cultured Cell Derived from Rat Calvaria
Cultured cell derived from rat calvaria was isolated from Wister rats (obtained from sankyo-rabo) of three days old by following method.
The rats were killed, decapitated and their calvarias were picked out. The tissue was flaked by a tweezer and suspended into a solution for enzyme treatment, containing 0.04% of EDTA, collagenase (crude type 1A: SIGMA: 0.1%) and trypsin (0.05%). The sample was treated in the enzyme solution for 30 min under temperature of 37° C. Then, the enzyme solution was harvested and cells extricated into the enzyme solution was harvested by centrifugation (RC-I). The enzyme solution was added again and digested at 37° C. for 30 min. Cells extricated into the enzyme solution was designated as RC-II.
The RC-I and RC-II thus obtained were mixed and used for following experiments. The cell mixture of RC-I and RC-II was designated as RC-I,II cell in following description. […] The RC-I and RC-II described above hardly expressed alkaline phosphatase (ALP), type 1 collagen (COL1) and osteocarcin (OC) gene. The genes described above are used for marker genes of osteoblast (T. R. Arnett et al, Methods in Bone Biology, 1988, Chapman & Hall).
(3) Estimation of Osteogenesis Inducing Activity of the Lipid-bound Glycosaminoglycan
HA-PE produced as described above was dissolved in hank's solution at concentration of 5 μg/ml and 2 ml of hank's solution containing HA-PE was poured into polystyrene culture dish with diameter of 10 cm. The dish was coated by settling the dish for 16 hours at 4° C. The dish treated by hank's solution without HA-PE was used for control.
The RC-I,II cell suspension, prepared as described above, was poured on the dish at the density of 1×10^4 cells/cm^2. The cell was cultured in α-minimum eagle medium (MEM: GIBCO) solution containing 1% anti-biotics, anti-mycoplasma solution (containing 50 μg/ml ascorbic acid and 5 mM β-glycerophosphate, GIBCO) and 10% fatal bovine serum (FBS: GIBCO).
At the time just after cell reached to confluent, one week after confluent and two weeks after confluent, total RNA of the cell was extracted by guanidine-phenol-chloroform method. The expression of ALP, COL1 and OC genes was analyzed by northern blotting method. The expression of these genes are used as an indicator of osteoblast differentiation. In FIG. 1, Et-Br indicates control sample obtained by staining of ribosomal RNA by ethydium bromide. Moreover, digitalized result calculated from northern blotting of FIG. 1 by Quantity One program (TOYOBO) was shown in FIG. 2 as a value standardized against the control described above.

[2] = hyaluronic acid with a molecular weight of 20,000 to 60,000, at a concentration of 0.5 mg/ml; cited from earlier work
[3] = RC-I,II cell cultured in dish coated with 5 μg/ml HA-PE, northern blotting at confluent, one and two weeks after confluent, vs dish treated without HA-PE

L-(α-phosphatidyl)ethanolamine dipalmytoyl conjugated hyaluronic acid [HA-PE]
induction of osteocyte differentiation ([1]; RC-I,II cell cultured in HA-PE coated dish (5 μg/ml)): significant induction of osteocyte differentiation
expression of ALP gene [1, 3]: predominant increase
expression of COL1 gene [1, 3]: predominant increase
expression of OC gene [1, 3]: predominant increase

hyaluronic acid
osteogenesis induction activity [2]: osteogenesis induction activity
